The values below come from PubChem BioAssay AID330 (DTP/NCI, 2004).

This assay deals with P388 leukemia ip, CD2F1 mice, survival T/C. The assay is described as follows: NCI In Vivo Anticancer Drug Screen. Data for tumor model P388 Leukemia (intraperitoneal) in CD2F1 (CDF1) mice. Particulars: endpoint: median survival time, higher = longer survival. Put shortly:
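Mice carrying the transplanted tumor received test compound or vehicle. Survival was recorded in each group, and the value is the treated-group measurement divided by that of the vehicle-treated control group.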

[1] abbreviates: dose: 50.0 mg/kg/injection, schedule: Q01DX009 (ip), vehicle: Klucel (hydroxypropylcellulose) (HPC).
Setting [2] is: dose: 100.0 mg/kg/injection, schedule: Q01DX009 (ip), vehicle: Klucel (hydroxypropylcellulose) (HPC).
[3] abbreviates: dose: 200.0 mg/kg/injection, schedule: Q01DX009 (ip), vehicle: Klucel (hydroxypropylcellulose) (HPC).
[4] abbreviates: dose: 100.0 mg/kg/injection, schedule: Q04DX003 (ip), vehicle: saline.
Where [5] appears, read: dose: 200.0 mg/kg/injection, schedule: Q04DX003 (ip), vehicle: saline.
The mark [6] stands for this setting: dose: 100.0 mg/kg/injection, schedule: Q04DX003 (ip), vehicle: Klucel (hydroxypropylcellulose) (HPC).
[7] abbreviates: dose: 200.0 mg/kg/injection, schedule: Q04DX003 (ip), vehicle: Klucel (hydroxypropylcellulose) (HPC).
Where [8] appears, read: dose: 50.0 mg/kg/injection, schedule: Q01DX005 (ip), vehicle: Klucel (hydroxypropylcellulose) (HPC).
[9] abbreviates: dose: 100.0 mg/kg/injection, schedule: Q01DX005 (ip), vehicle: Klucel (hydroxypropylcellulose) (HPC).
Where [10] appears, read: dose: 200.0 mg/kg/injection, schedule: Q01DX005 (ip), vehicle: Klucel (hydroxypropylcellulose) (HPC).
[11] abbreviates: dose: 100.0 mg/kg/injection, schedule: Q01DX009 (ip), vehicle: saline with Tween-80.
[12] abbreviates: dose: 100.0 mg/kg/injection, schedule: Q04DX003 (ip), vehicle: saline with Tween-80.
Where [13] appears, read: dose: 200.0 mg/kg/injection, schedule: Q04DX003 (ip), vehicle: saline with Tween-80.
[14] abbreviates: dose: 50.0 mg/kg/injection, schedule: Q01DX009 (ip), vehicle: saline with Tween-80.
[15] abbreviates: dose: 50.0 mg/kg/injection, schedule: Q01DX005 (ip), vehicle: saline with Tween-80.
[16] abbreviates: dose: 100.0 mg/kg/injection, schedule: Q01DX005 (ip), vehicle: saline with Tween-80.
Setting [17] is: dose: 200.0 mg/kg/injection, schedule: Q01DX005 (ip), vehicle: saline with Tween-80.
Where [18] appears, read: dose: 25.0 mg/kg/injection, schedule: Q01DX009 (ip), vehicle: saline with Tween-80.
Setting [19] is: dose: 50.0 mg/kg/injection, schedule: Q04DX003 (ip), vehicle: saline.
Setting [20] is: dose: 50.0 mg/kg/injection, schedule: Q04DX003 (ip), vehicle: saline with Tween-80.

Where “and” joins values, the source holds several entries; their conditions need not be identical. Identical values can stand only once. Toxic doses and inconclusive results are not listed.

For `COc1ccc(OC)c(C(N)=O)c1`, the T/C under setting [1] was 102 % of control, the T/C under setting [2] is 102 % of control and the T/C under setting [3] is 100 % of control.

Consider `C#CC(C(O)c1ccccc1)N1CCOCC1` (configuration not stated), for which the T/C under setting [4] is 104 % of control; the T/C under setting [5] is 102 % of control; the T/C (dose: 400.0 mg/kg/injection, schedule: Q04DX003 (ip), vehicle: saline) was 101 % of control.

With `NC(=S)N/N=C\C=N\Nc1ccccc1`, the T/C reads like this: under setting [6], 100 % of control; under setting [7], 100 % of control.

As to `O=[N+]([O-])c1ccc2oc([N+](=O)[O-])cc2c1`, the T/C reads like this: under setting [8], 101 % of control; under setting [9], 100 % of control; under setting [10], 101 % of control.

On to `CCOC(=O)/C(=C\c1cccc(OC)c1OC)CC(=O)O`, for which the T/C runs as follows: (dose: 25.0 mg/kg/injection, schedule: Q01DX009 (ip), vehicle: other) 102 % of control; (dose: 50.0 mg/kg/injection, schedule: Q01DX009 (ip), vehicle: other) 107 % of control; (dose: 100.0 mg/kg/injection, schedule: Q01DX009 (ip), vehicle: other) 98 % of control; (dose: 200.0 mg/kg/injection, schedule: Q01DX009 (ip), vehicle: other) 112 % of control; (dose: 400.0 mg/kg/injection, schedule: Q01DX009 (ip), vehicle: other) 111 % of control.

Turning to `O=[N+]([O-])c1ccc2c(N=Nc3ccc4ccccc4c3O)c(O)cc(S(=O)(=O)O)c2c1`, the T/C under setting [11] was 90 % of control; the T/C under setting [12] was 95 % of control; the T/C under setting [13] is 100 % of control; the T/C (dose: 400.0 mg/kg/injection, schedule: Q04DX003 (ip), vehicle: saline with Tween-80) was 100 % of control.

With `NS(=O)(=O)c1ccc(NC(=S)S)cc1`, the T/C runs as follows: under setting [1], 107 % of control; under setting [2], 107 % of control; under setting [3], 91 % of control.

For `NS(=O)(=O)c1cc(Cl)cc(Cl)c1O`, the T/C is 100 % of control under setting [14] and 120 % of control under setting [11].

As to `CCN=C1NS(=O)(=O)c2ccccc21`, the T/C under setting [15] was 100 % of control, the T/C under setting [16] is 97 % of control and the T/C under setting [17] was 100 % of control.

Regarding `CS(=O)(=O)c1cc(C(F)(F)F)cc([N+](=O)[O-])c1Cl`, the T/C under setting [18] is 109 % of control and the T/C under setting [14] was 100 % of control.

Take `Nc1ccc2cc3ccc(N)cc3nc2c1`: the T/C reads like this: (dose: 12.5 mg/kg/injection, schedule: Q01DX009 (ip), vehicle: saline) 122 % of control; (dose: 15.0 mg/kg/injection, schedule: Q01DX005 (ip), vehicle: saline) 109 % of control; (dose: 50.0 mg/kg/injection, schedule: Q01DX009 (ip), vehicle: saline) 95 % of control; under setting [19], 86 % of control.

As to `COc1cc2c(cc1O)C1CC(CC3CCCCN31)OC(=O)/C=C\c1ccc(O)c-2c1` (configuration not stated), the T/C is 100 % of control (dose: 25.0 mg/kg/injection, schedule: Q04DX003 (ip), vehicle: saline); 107 % of control and 109 % of control under setting [19]; 102 % of control and 110 % of control and 121 % of control under setting [4]; 100 % of control and 102 % of control and 105 % of control under setting [5].

In the case of `Cc1ccc(S(=O)(=O)c2cc3ccccc3oc2=O)cc1`, the T/C runs as follows: (dose: 60.0 mg/kg/injection, schedule: Q01DX005 (ip), vehicle: saline with Tween-80) 91 % of control; (dose: 120.0 mg/kg/injection, schedule: Q01DX005 (ip), vehicle: saline with Tween-80) 88 % of control.

As to `Cc1ccc2cccc([N+](=O)[O-])c2n1`, the T/C was 100 % of control (dose: 12.5 mg/kg/injection, schedule: Q04DX003 (ip), vehicle: saline with Tween-80); 104 % of control (dose: 25.0 mg/kg/injection, schedule: Q04DX003 (ip), vehicle: saline with Tween-80); 95 % of control under setting [20].

`CN(C)CCSc1n[nH]c(=O)[nH]c1=O`: the T/C runs as follows: (dose: 25.0 mg/kg/injection, schedule: Q01DX005 (ip), vehicle: distilled water + alcohol) 101 % of control; (dose: 50.0 mg/kg/injection, schedule: Q01DX005 (ip), vehicle: distilled water + alcohol) 95 % of control; (dose: 100.0 mg/kg/injection, schedule: Q01DX005 (ip), vehicle: distilled water + alcohol) 100 % of control; (dose: 200.0 mg/kg/injection, schedule: Q01DX005 (ip), vehicle: distilled water + alcohol) 96 % of control.

Turning to `CCCC1(c2ccccc2)CCCC(C#N)C1=N` (configuration not stated), the T/C is 97 % of control under setting [6]; 98 % of control under setting [7]; 92 % of control (dose: 400.0 mg/kg/injection, schedule: Q04DX003 (ip), vehicle: Klucel (hydroxypropylcellulose) (HPC)).

Take `CCOC(=O)CC(=O)C(C)(OCC)OCC`: the T/C (dose: 100.0 mg/kg/injection, schedule: Q01DX009 (ip), vehicle: saline) is 157 % of control and the T/C (dose: 200.0 mg/kg/injection, schedule: Q01DX009 (ip), vehicle: saline) is 190 % of control.

Regarding `Cc1nn(C)c(=O)c2c3ccccc3nn12`, the T/C was 100 % of control (dose: 100.0 mg/kg/injection, schedule: Q01DX001 (ip), vehicle: saline with Tween-80); 95 % of control (dose: 200.0 mg/kg/injection, schedule: Q01DX001 (ip), vehicle: saline with Tween-80); 100 % of control (dose: 400.0 mg/kg/injection, schedule: Q01DX001 (ip), vehicle: saline with Tween-80).

On to `COP(=O)(OC)C1(C(C)(C)C)CO1` (configuration not stated), for which the T/C under setting [1] is 99 % of control, the T/C under setting [2] was 88 % of control and the T/C under setting [3] was 94 % of control.

On to `O=[N+]([O-])c1ccc2nc(N/N=C/COC/C=N/Nc3nc4ccc([N+](=O)[O-])cc4s3)sc2c1`, for which the T/C was 94 % of control (dose: 100.0 mg/kg/injection, schedule: Q01DX001 (ip), vehicle: saline); 104 % of control (dose: 200.0 mg/kg/injection, schedule: Q01DX001 (ip), vehicle: saline); 96 % of control (dose: 400.0 mg/kg/injection, schedule: Q01DX001 (ip), vehicle: saline).

In the case of `CC(C)N(C(=S)/N=C1/SCS(=O)(=O)N1Cc1ccccc1)C(C)C`, the T/C reads like this: under setting [20], 97 % of control; under setting [12], 95 % of control; under setting [13], 98 % of control.

For `O=C1c2ccccc2C(=O)c2sccc21`, the T/C runs as follows: (dose: 1.56 mg/kg/injection, schedule: Q01DX009 (ip), vehicle: saline with Tween-80) 98 % of control; (dose: 3.13 mg/kg/injection, schedule: Q01DX009 (ip), vehicle: saline with Tween-80) 105 % of control; (dose: 6.25 mg/kg/injection, schedule: Q01DX009 (ip), vehicle: saline with Tween-80) 103 % of control; (dose: 12.5 mg/kg/injection, schedule: Q01DX009 (ip), vehicle: saline with Tween-80) 99 % of control; under setting [18], 97 % of control; under setting [11], 88 % of control.

In the case of `O=Cc1c2cnc(c1O)CSCc1ccc(cc1)CSC2`, the T/C by setting is: under setting [15], 104 % of control; under setting [16], 110 % of control; under setting [17], 113 % of control.

As to `CC([NH-])CC(C)[NH-].[Cl][Pt+2][Cl]` (configuration not stated), the T/C (dose: 0.78 mg/kg/injection, schedule: Q04DX002 (ip), vehicle: saline with Tween-80) was 119 % of control.

Consider `O=C1CC2(CCCC2)C(=O)N1c1cccc([N+](=O)[O-])c1`, for which the T/C is, setting by setting: under setting [1], 92 % of control; under setting [2], 106 % of control; under setting [3], 101 % of control.

`CCN(CC)CCSc1ccccc1`: the T/C was 100 % of control under setting [8] and 102 % of control under setting [9].

Turning to `C=C(C)c1nc(N)nc(N2CCCCC2)n1`, the T/C by setting is: under setting [8], 98 % of control; under setting [9], 102 % of control; under setting [10], 117 % of control.
